From ChEMBL document CHEMBL1772958, “In vivo activity of benzoyl ester clerodane diterpenoid derivatives from Dodonaea polyandra” (2011)
Calls of active or inactive are those of the source. The calls are words filed in the database; no cut-off is given here.

What was measured:
Mus musculus [1] = experiment: Antiinflammatory activity against TPA-induced ear edema in mouse assessed as ear thickness at 0.91 umol/ear, sc administered 30 mins after TPA challenge measured after 2 to 48 hrs; assay type: functional
Mus musculus [2] = experiment: Antiinflammatory activity against TPA-induced ear edema in mouse assessed as ear thickness at 0.90 umol/ear, sc administered 30 mins after TPA challenge measured after 2 to 48 hrs; assay type: functional, organism-based
Mus musculus [3] = experiment: Antiinflammatory activity against TPA-induced ear edema in mouse assessed as ear thickness at 0.023 to 0.91 umol/ear, sc administered 30 mins after TPA challenge measured after 2 to 48 hrs; assay type: functional, organism-based
Mus musculus [4] = experiment: Antiinflammatory activity against TPA-induced ear edema in mouse assessed as ear thickness at 1.83 umol/ear, sc administered 30 mins after TPA challenge measured after 2 to 48 hrs; assay type: functional, organism-based
Mus musculus [5] = experiment: Antiinflammatory activity against TPA-induced ear edema in mouse assessed as ear thickness at 0.088 to 1.77 umol/ear, sc administered 30 mins after TPA challenge measured after 2 to 48 hrs; assay type: functional, organism-based
Mus musculus [6] = experiment: Antiinflammatory activity against TPA-induced ear edema in mouse assessed as ear thickness, sc administered 30 mins after TPA challenge measured after 2 to 48 hrs; assay type: functional, organism-based
Mus musculus [7] = experiment: Antiinflammatory activity against TPA-induced ear edema in mouse assessed as ear thickness at 0.22 umol/ear, topically administered 30 mins after TPA challenge measured after 8 hrs

Structure (SMILES): C[C@@H]1CC[C@]2(C)C(C(=O)O)=C[C@H](OC(=O)c3ccccc3)C[C@@H]2[C@]1(C)CCc1ccoc1 (relative stereo)
- inhibition (INH) (Mus musculus [1]): 76.4%

Structure (SMILES): CCC(=O)OCC(=O)[C@@]1(OC(=O)CC)[C@@H](C)C[C@H]2[C@@H]3CCC4=CC(=O)C=C[C@]4(C)[C@@]3(F)[C@@H](O)C[C@@]21C
- inhibition (Mus musculus [2]): Active

Structure (SMILES): C[C@@]1(CCc2ccoc2)[C@H](COC(=O)c2ccccc2)CC[C@]2(C)C(C(=O)O)=CCC[C@H]12 (relative stereo)
- Activity (Mus musculus [3]): inactive
- Activity (Mus musculus [4]): Active

Structure (SMILES): C[C@@]1(CCc2ccoc2)[C@H](COC(=O)c2ccccc2)CC[C@]2(C)C(C(=O)O)=C[C@H](O)C[C@H]12 (relative stereo)
- Activity (Mus musculus [5]): Active
- Activity (Mus musculus [6]): Active
- inhibition (INH) (Mus musculus [7]): 70.2%
